# Laboratory results from ChEMBL document CHEMBL1153245, “A profile of the in vitro anti-tumor activity of imidazolium-based ionic liquids” (2010).
# Legend:
# Format in all cases: functional
# OVCAR-4 = experiment: Anticancer activity against human OVCAR4 cells after 48 hrs by sulforhodamine B assay; conditions: for CC50: read-out: LC50 (the source's name)
# HT-29 = experiment: Anticancer activity against human HT-29 cells after 48 hrs by sulforhodamine B assay; conditions: for CC50: read-out: LC50 (the source's name)
# KM12 = experiment: Anticancer activity against human KM12 cells after 48 hrs by sulforhodamine B assay; conditions: for CC50: read-out: LC50 (the source's name)
# HOP-62 = experiment: Anticancer activity against human HOP62 cells after 48 hrs by sulforhodamine B assay; conditions: for CC50: read-out: LC50 (the source's name)
# A549 = experiment: Anticancer activity against human A549 cells after 48 hrs by sulforhodamine B assay
# TK-10 = experiment: Anticancer activity against human TK10 cells after 48 hrs by sulforhodamine B assay
# SK-MEL-5 = experiment: Anticancer activity against human SK-MEL-5 cells after 48 hrs by sulforhodamine B assay; conditions: for CC50: read-out: LC50 (the source's name)
# U-251 = experiment: Anticancer activity against human U251 cells after 48 hrs by sulforhodamine B assay; conditions: for CC50: read-out: LC50 (the source's name)
# NCI-H522 = experiment: Anticancer activity against human NCI-H522 cells after 48 hrs by sulforhodamine B assay
# PC-3 = experiment: Anticancer activity against human PC3 cells after 48 hrs by sulforhodamine B assay; conditions: for CC50: read-out: LC50 (the source's name)
# K562 = experiment: Anticancer activity against human K562 cells after 48 hrs by sulforhodamine B assay
# SNB-19 = experiment: Anticancer activity against human SNB19 cells after 48 hrs by sulforhodamine B assay; conditions: for CC50: read-out: LC50 (the source's name)
# HOP-92 = experiment: Anticancer activity against human HOP92 cells after 48 hrs by sulforhodamine B assay; conditions: for CC50: read-out: LC50 (the source's name)
# M14 = experiment: Anticancer activity against human M14 cells after 48 hrs by sulforhodamine B assay
# [1] = Anticancer activity against human […] cells after 48 hrs by sulforhodamine B assay; conditions: for CC50: read-out: LC50 (the source's name)
# LOX IMVI = experiment: Anticancer activity against human LOXIMVI cells after 48 hrs by sulforhodamine B assay; conditions: for CC50: read-out: LC50 (the source's name)
# SNB-75 = experiment: Anticancer activity against human SNB75 cells after 48 hrs by sulforhodamine B assay; conditions: for CC50: read-out: LC50 (the source's name)
# UO-31 = experiment: Anticancer activity against human UO31 cells after 48 hrs by sulforhodamine B assay
# OVCAR-8 = experiment: Anticancer activity against human OVCAR8 cells after 48 hrs by sulforhodamine B assay
# 786-0 = experiment: Anticancer activity against human 786-0 cells after 48 hrs by sulforhodamine B assay
# IGROV-1 = experiment: Anticancer activity against human IGROV1 cells after 48 hrs by sulforhodamine B assay; conditions: IGROV-1, 48 h
# CCRF-CEM = experiment: Anticancer activity against human CCRF-CEM cells after 48 hrs by sulforhodamine B assay
# CAKI-1 = experiment: Anticancer activity against human Caki1 cells after 48 hrs by sulforhodamine B assay
# RXF 393 = experiment: Anticancer activity against human RXF393 cells after 48 hrs by sulforhodamine B assay
# UACC-257 = experiment: Anticancer activity against human UACC257 cells after 48 hrs by sulforhodamine B assay
# NCI-H23 = experiment: Anticancer activity against human NCI-H23 cells after 48 hrs by sulforhodamine B assay; conditions: for CC50: read-out: LC50 (the source's name)
# BT-549 = experiment: Anticancer activity against human BT549 cells after 48 hrs by sulforhodamine B assay; conditions: for CC50: read-out: LC50 (the source's name)
# EKVX = experiment: Anticancer activity against human EKVX cells after 48 hrs by sulforhodamine B assay; conditions: for CC50: read-out: LC50 (the source's name)
# HCC 2998 = experiment: Anticancer activity against human HCC2998 cells after 48 hrs by sulforhodamine B assay; conditions: for CC50: read-out: LC50 (the source's name)
# MOLT-4 = experiment: Anticancer activity against human MOLT4 cells after 48 hrs by sulforhodamine B assay
# MDA-MB-231 = experiment: Anticancer activity against human MDA-MB-231 cells after 48 hrs by sulforhodamine B assay; conditions: for CC50: read-out: LC50 (the source's name)
compound,measurement,setting,value
CCCCCCCCCCCCCCCCCC[n+]1ccn(C)c1.[Cl-],GI50,"OVCAR-4; Homo sapiens, OVCAR-4, 48 h",778 nM
same,CC50,OVCAR-4,> 100000 nM
same,GI50,"HT-29; Homo sapiens, HT-29, 48 h",315 nM
same,CC50,HT-29,5520 nM
same,GI50,"KM12; Homo sapiens, KM12, 48 h",275 nM
same,CC50,"KM12; Homo sapiens, KM12, 48 h",2960 nM
same,GI50,"HOP-62; Homo sapiens, HOP-62, 48 h",967 nM
same,CC50,"HOP-62; Homo sapiens, HOP-62, 48 h",7800 nM
same,GI50,"A549; Homo sapiens, A549, 48 h",639 nM
same,LC50 (concentration killing 50% of cells),"A549; Homo sapiens, A549, 48 h",10000 nM
same,GI50,"TK-10; Homo sapiens, TK-10, 48 h",244 nM
same,LC50,"TK-10; Homo sapiens, TK-10, 48 h",2770 nM
same,GI50,"SK-MEL-5; Homo sapiens, SK-MEL-5, 48 h",414 nM
same,CC50,"SK-MEL-5; Homo sapiens, SK-MEL-5, 48 h",3970 nM
same,GI50,"U-251; Homo sapiens, U-251, 48 h",372 nM
same,CC50,"U-251; Homo sapiens, U-251, 48 h",3880 nM
same,GI50,NCI-H522,364 nM
same,LC50,"NCI-H522; Homo sapiens, NCI-H522, 48 h",6450 nM
same,GI50,"PC-3; Homo sapiens, PC-3, 48 h",212 nM
same,CC50,"PC-3; Homo sapiens, PC-3, 48 h",2850 nM
same,GI50,K562,385 nM
same,CC50,"K562; Homo sapiens, K562, 48 h, read-out: LC50 (the source's name)",> 100000 nM
same,GI50,"SNB-19; Homo sapiens, SNB-19, 48 h",1220 nM
same,CC50,SNB-19,> 100000 nM
same,GI50,"HOP-92; Homo sapiens, HOP-92, 48 h",1140 nM
same,CC50,"HOP-92; Homo sapiens, HOP-92, 48 h",6850 nM
same,GI50,"M14; Homo sapiens, M14, 48 h",330 nM
same,LC50 (50% lethal concentration),"M14; Homo sapiens, M14, 48 h",6630 nM
same,GI50,"[1]; Homo sapiens, RPMI8266, 48 h",27 nM
same,CC50,"[1]; Homo sapiens, RPMI8266, 48 h",1210 nM
same,GI50,LOX IMVI,189 nM
same,CC50,LOX IMVI,1480 nM
same,GI50,SNB-75,473 nM
same,CC50,"SNB-75; Homo sapiens, SNB-75, 48 h",7400 nM
same,GI50,"UO-31; Homo sapiens, UO-31, 48 h",608 nM
same,LC50,"UO-31; Homo sapiens, UO-31, 48 h",5940 nM
same,GI50,"OVCAR-8; Homo sapiens, OVCAR-8, 48 h",998 nM
same,LC50,"OVCAR-8; Homo sapiens, OVCAR-8, 48 h",7400 nM
same,GI50,"786-0; Homo sapiens, 786-0, 48 h",669 nM
same,LC50 (50% lethal concentration),"786-0; Homo sapiens, 786-0, 48 h",6020 nM
same,GI50,IGROV-1,175 nM
same,CC50,IGROV-1; read-out: LC50 (the source's name),> 100000 nM
same,GI50,"CCRF-CEM; Homo sapiens, CCRF-CEM, 48 h",127 nM
same,LC50,"CCRF-CEM; Homo sapiens, CCRF-CEM, 48 h",720 nM
same,GI50,"CAKI-1; Homo sapiens, CAKI-1, 48 h",429 nM
same,LC50,"CAKI-1; Homo sapiens, CAKI-1, 48 h",7450 nM
same,GI50,"RXF 393; Homo sapiens, RXF 393, 48 h",265 nM
same,LC50,"RXF 393; Homo sapiens, RXF 393, 48 h",4900 nM
same,GI50,UACC-257,125 nM
same,LC50,"UACC-257; Homo sapiens, UACC-257, 48 h",6770 nM
same,GI50,"NCI-H23; Homo sapiens, NCI-H23, 48 h",392 nM
same,CC50,"NCI-H23; Homo sapiens, NCI-H23, 48 h",7720 nM
same,GI50,BT-549,557 nM
same,CC50,"BT-549; Homo sapiens, BT-549, 48 h",5330 nM
same,GI50,"EKVX; Homo sapiens, EKVX, 48 h",649 nM
same,CC50,"EKVX; Homo sapiens, EKVX, 48 h",7780 nM
same,GI50,"HCC 2998; Homo sapiens, HCC 2998, 48 h",296 nM
same,CC50,"HCC 2998; Homo sapiens, HCC 2998, 48 h",7770 nM
same,GI50,MOLT-4,189 nM
same,LC50,MOLT-4,2160 nM
same,GI50,MDA-MB-231,449 nM
same,CC50,"MDA-MB-231; Homo sapiens, MDA-MB-231, 48 h",4860 nM
CCCCCCCCCCCCCCCCCC[n+]1ccn(C)c1.F[P-](F)(F)(F)(F)F,GI50,OVCAR-4,1030 nM
same,CC50,OVCAR-4,6330 nM
same,GI50,HT-29,408 nM
same,CC50,HT-29,> 100000 nM
same,GI50,KM12,471 nM
same,CC50,KM12,4000 nM
same,GI50,HOP-62,1450 nM
same,CC50,HOP-62,7770 nM
same,LC50 (concentration killing 50% of cells),A549,9370 nM
same,GI50,TK-10,463 nM
same,LC50,TK-10,4760 nM
same,GI50,SK-MEL-5,617 nM
same,CC50,SK-MEL-5,4370 nM
same,GI50,U-251,482 nM
same,CC50,U-251,4200 nM
same,GI50,NCI-H522,1160 nM
same,LC50,NCI-H522,6770 nM
same,GI50,PC-3,286 nM
same,CC50,PC-3,3540 nM
same,GI50,K562,935 nM
same,GI50,SNB-19,1450 nM
same,CC50,SNB-19,7890 nM
same,GI50,HOP-92,927 nM
same,CC50,HOP-92,6680 nM
same,GI50,M14,424 nM
same,LC50 (50% lethal concentration),M14,6250 nM
same,GI50,[1],17 nM
same,CC50,[1],811 nM
same,GI50,LOX IMVI,385 nM
same,CC50,LOX IMVI,3840 nM
same,GI50,SNB-75,991 nM
same,CC50,SNB-75,6500 nM
same,GI50,UO-31,657 nM
same,LC50,UO-31,5350 nM
same,GI50,OVCAR-8,1300 nM
same,LC50,OVCAR-8,9800 nM
same,GI50,786-0,1250 nM
same,LC50 (50% lethal concentration),786-0,8580 nM
same,GI50,CCRF-CEM,129 nM
same,LC50,CCRF-CEM,980 nM
same,GI50,CAKI-1,791 nM
same,LC50,CAKI-1,8900 nM
same,GI50,RXF 393,467 nM
same,LC50,RXF 393,5980 nM
same,GI50,UACC-257,1690 nM
same,LC50,UACC-257,9660 nM
same,GI50,NCI-H23,424 nM
same,CC50,NCI-H23,7980 nM
same,GI50,BT-549,1290 nM
same,CC50,BT-549,6910 nM
same,GI50,EKVX,1120 nM
same,CC50,EKVX,7640 nM
same,GI50,HCC 2998,293 nM
same,CC50,HCC 2998,5860 nM
same,GI50,MOLT-4,589 nM
same,LC50,MOLT-4,> 100000 nM
same,GI50,MDA-MB-231,1030 nM
same,CC50,MDA-MB-231,5110 nM
